Values belong to the compound of their own block, whether it stands above or below them.
What was measured:
[1] = system: HT-29; assay: Antiproliferative activity against human HT-29 cells by MTT assay; type: functional, cell-based
[2] = system: HGC-27; assay: Antiproliferative activity against human HGC27 cells by MTT assay; type: functional, cell-based
[3] = system: MDA-MB-231; assay: Antiproliferative activity against human MDA-MB-231 cells by MTT assay; type: functional, cell-based
[4] = system: JIMT-1; assay: Antiproliferative activity against human JIMT1 cells by MTT assay; type: functional, cell-based
[5] = system: MCF7; assay: Antiproliferative activity against human MCF7 cells by MTT assay; type: functional, cell-based
[6] = system: HT-29; assay: Antiproliferative activity against human HT-29 cells after 48 hrs by MTT assay; type: functional, cell-based; conditions: HT-29, 48 h
[7] = system: HGC-27; assay: Antiproliferative activity against human HGC27 cells after 48 hrs by MTT assay; type: functional, cell-based; conditions: HGC-27, 48 h
[8] = system: MDA-MB-231; assay: Antiproliferative activity against human MDA-MB-231 cells after 48 hrs by MTT assay; type: functional, cell-based; conditions: MDA-MB-231, 48 h
[9] = system: U-87 MG; assay: Antiproliferative activity against human U87 cells by MTT assay; type: functional, cell-based, U-87MG ATCC
[10] = system: HeLa; assay: Antiproliferative activity against human HeLa cells by MTT assay; type: functional, cell-based
[11] = system: Caco-2; assay: Antiproliferative activity against human Caco2 cells by MTT assay; type: functional, cell-based

IC50 [1]: 180 nM
IC50 [3]: 790 nM
SMILES: CC[C@@H](C(=O)[C@@H](C)[C@@H](O)[C@H](C)[C@@H]1O[C@@H]([C@@H](CC)C(=O)O)CC[C@@H]1C)[C@H]1O[C@]2(C=C[C@H](OC(=O)c3ccccc3)[C@]3(CC[C@@](C)([C@H]4CC[C@](O)(CC)[C@H](C)O4)O3)O2)[C@H](C)C[C@@H]1C
IC50 [2]: 240 nM

IC50 [5]: 240 nM
SMILES: CC[C@@H](C(=O)[C@@H](C)[C@@H](O)[C@H](C)[C@@H]1O[C@@H]([C@@H](CC)C(=O)O)CC[C@@H]1C)[C@H]1O[C@]2(C=C[C@@H](OC(=O)Oc3ccccc3)[C@]3(CC[C@@](C)([C@H]4CC[C@](O)(CC)[C@H](C)O4)O3)O2)[C@H](C)C[C@@H]1C
IC50 [4]: 200 nM

IC50 [1]: 890 nM
IC50 [3]: 2780 nM
SMILES: CC[C@@H](C(=O)[C@@H](C)[C@@H](O)[C@H](C)[C@@H]1O[C@@H]([C@@H](CC)C(=O)O)CC[C@@H]1C)[C@H]1O[C@]2(C=C[C@H](OC(=O)CC(C)C)[C@]3(CC[C@@](C)([C@H]4CC[C@](O)(CC)[C@H](C)O4)O3)O2)[C@H](C)C[C@@H]1C
IC50 [2]: 860 nM

IC50 [5]: 240 nM
SMILES: CC[C@@H](C(=O)[C@@H](C)[C@@H](O)[C@H](C)[C@@H]1O[C@@H]([C@@H](CC)C(=O)O)CC[C@@H]1C)[C@H]1O[C@]2(C=C[C@@H](OC(=O)C3CCCCC3)[C@]3(CC[C@@](C)([C@H]4CC[C@](O)(CC)[C@H](C)O4)O3)O2)[C@H](C)C[C@@H]1C
IC50 [4]: 300 nM

IC50 [5]: 230 nM
SMILES: CC[C@@H](C(=O)[C@@H](C)[C@@H](O)[C@H](C)[C@@H]1O[C@@H]([C@@H](CC)C(=O)O)CC[C@@H]1C)[C@H]1O[C@]2(C=C[C@@H](OC(=O)c3cnco3)[C@]3(CC[C@@](C)([C@H]4CC[C@](O)(CC)[C@H](C)O4)O3)O2)[C@H](C)C[C@@H]1C
IC50 [4]: 240 nM

IC50 [5]: 610 nM
SMILES: C=CC(=O)O[C@@H]1C=C[C@]2(O[C@H]([C@@H](CC)C(=O)[C@@H](C)[C@@H](O)[C@H](C)[C@@H]3O[C@@H]([C@@H](CC)C(=O)O)CC[C@@H]3C)[C@@H](C)C[C@H]2C)O[C@@]12CC[C@@](C)([C@H]1CC[C@](O)(CC)[C@H](C)O1)O2
IC50 [4]: 390 nM

IC50 [5]: 130 nM
SMILES: CC[C@@H](C(=O)[C@@H](C)[C@@H](O)[C@H](C)[C@@H]1O[C@@H]([C@@H](CC)C(=O)O)CC[C@@H]1C)[C@H]1O[C@]2(C=C[C@@H](OC(=O)c3ccco3)[C@]3(CC[C@@](C)([C@H]4CC[C@](O)(CC)[C@H](C)O4)O3)O2)[C@H](C)C[C@@H]1C
IC50 [4]: 160 nM

SMILES: CC[C@@H](C(=O)[C@@H](C)[C@@H](O)[C@H](C)[C@@H]1O[C@@H]([C@@H](CC)C(=O)O)CC[C@@H]1C)[C@H]1O[C@@]2(C=C[C@@H](O)[C@]3(CC[C@@](C)([C@H]4CC[C@](O)(CC)[C@H](C)O4)O3)O2)[C@H](C)C[C@@H]1C
IC50 [6]: > 10000 nM
IC50 [7]: > 10000 nM
IC50 [8]: > 10000 nM

SMILES: CCOC(=O)O[C@@H]1C=C[C@]2(O[C@H]([C@@H](CC)C(=O)[C@@H](C)[C@@H](O)[C@H](C)[C@@H]3O[C@@H]([C@@H](CC)C(=O)O)CC[C@@H]3C)[C@@H](C)C[C@H]2C)O[C@@]12CC[C@@](C)([C@H]1CC[C@](O)(CC)[C@H](C)O1)O2
IC50 [4]: 90 nM
IC50 [5]: 130 nM

IC50 [6]: 2800 nM
IC50 [8]: 6560 nM
SMILES: CC[C@@H](C(=O)[C@@H](C)[C@@H](O)[C@H](C)[C@@H]1O[C@@H]([C@@H](CC)C(=O)O)CC[C@@H]1C)[C@H]1O[C@@]2(C=C[C@@H](OCc3ccccc3)[C@@]3(CC[C@@](C)([C@H]4CC[C@](O)(CC)[C@H](C)O4)O3)O2)[C@H](C)C[C@@H]1C
IC50 [7]: 4140 nM

SMILES: CCNC(=O)O[C@@H]1C=C[C@]2(O[C@H]([C@@H](CC)C(=O)[C@@H](C)[C@@H](O)[C@H](C)[C@@H]3O[C@@H]([C@@H](CC)C(=O)O)CC[C@@H]3C)[C@@H](C)C[C@H]2C)O[C@@]12CC[C@@](C)([C@H]1CC[C@](O)(CC)[C@H](C)O1)O2
IC50 [4]: 260 nM
IC50 [5]: 160 nM

IC50 [6]: > 10000 nM
IC50 [8]: > 10000 nM
SMILES: CC[C@@H](C(=O)[C@@H](C)[C@@H](O)[C@H](C)[C@@H]1O[C@@H]([C@@H](CC)C(=O)O)CC[C@@H]1C)[C@H]1O[C@@]2(C=C[C@@H](OCc3ccccc3)[C@]3(CC[C@@](C)([C@H]4CC[C@](O)(CC)[C@H](C)O4)O3)O2)[C@H](C)C[C@@H]1C
IC50 [7]: > 10000 nM

IC50 [9]: 50000 nM
IC50 [10]: 330 nM
IC50 [11]: 1290 nM
SMILES: CC[C@@H](C(=O)[C@@H](C)[C@@H](O)[C@H](C)[C@@H]1O[C@@H]([C@@H](CC)C(=O)O)CC[C@@H]1C)[C@H]1O[C@]2(C=C[C@H](n3cc(-c4ccc(-c5ccccc5)cc4)nn3)[C@]3(CC[C@@](C)([C@H]4CC[C@](O)(CC)[C@H](C)O4)O3)O2)[C@H](C)C[C@@H]1C
